{"source": "ChEMBL document CHEMBL1201862", "about": "“PubChem BioAssay data set” (2004)", "test_in_all_cases": "NCI tumour cell line growth inhibition, 48 h", "key": {"786-0": {"tested_on": "786-0"}, "A498": {"tested_on": "A498"}, "A549": {"tested_on": "A549"}, "ACHN": {"tested_on": "ACHN"}, "BT-549": {"tested_on": "BT-549"}, "CAKI-1": {"tested_on": "CAKI-1"}, "CCRF-CEM": {"tested_on": "CCRF-CEM"}, "COLO 205": {"tested_on": "COLO 205"}, "DU-145": {"tested_on": "DU-145"}, "EKVX": {"tested_on": "EKVX"}, "HCC 2998": {"tested_on": "HCC 2998"}, "HCT-116": {"tested_on": "HCT-116"}, "HCT-15": {"tested_on": "HCT-15"}, "HOP-62": {"tested_on": "HOP-62"}, "HOP-92": {"tested_on": "HOP-92"}, "HT-29": {"tested_on": "HT-29"}, "IGROV-1": {"tested_on": "IGROV-1"}, "K562": {"tested_on": "K562"}, "KM12": {"tested_on": "KM12"}, "LOX IMVI": {"tested_on": "LOX IMVI"}, "M14": {"tested_on": "M14"}, "MCF7": {"tested_on": "MCF7"}, "MDA-MB-231": {"tested_on": "MDA-MB-231"}, "MDA-MB-435": {"tested_on": "MDA-MB-435"}, "MOLT-4": {"tested_on": "MOLT-4"}, "Malme-3M": {"tested_on": "Malme-3M"}, "NCI-H226": {"tested_on": "NCI-H226"}, "NCI-H23": {"tested_on": "NCI-H23"}, "NCI-H522": {"tested_on": "NCI-H522"}, "NCI/ADR-RES": {"tested_on": "NCI/ADR-RES"}, "OVCAR-3": {"tested_on": "OVCAR-3"}, "OVCAR-5": {"tested_on": "OVCAR-5"}, "OVCAR-8": {"tested_on": "OVCAR-8"}, "PC-3": {"tested_on": "PC-3"}, "RPMI-8226": {"tested_on": "RPMI-8226"}, "SF-268": {"tested_on": "SF-268"}, "SF-295": {"tested_on": "SF-295"}, "SF-539": {"tested_on": "SF-539"}, "SK-MEL-2": {"tested_on": "SK-MEL-2"}, "SK-MEL-5": {"tested_on": "SK-MEL-5"}, "SK-OV-3": {"tested_on": "SK-OV-3"}, "SN12C": {"tested_on": "SN12C"}, "SNB-75": {"tested_on": "SNB-75"}, "SR": {"tested_on": "SR"}, "T47D": {"tested_on": "T47D"}, "TK-10": {"tested_on": "TK-10"}, "U-251": {"tested_on": "U-251"}, "UACC-257": {"tested_on": "UACC-257"}, "UACC-62": {"tested_on": "UACC-62"}, "UO-31": {"tested_on": "UO-31"}, "HL-60": {"tested_on": "HL-60"}, "Hs-578T": {"tested_on": "Hs-578T"}, "RXF 393": {"tested_on": "RXF 393"}, "SK-MEL-28": {"tested_on": "SK-MEL-28"}, "SNB-19": {"tested_on": "SNB-19"}}, "note": "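Compound exposure: 48 hours, 5 concentrations, 96-well plates. At the GI50, growth is halved.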 Calls of active or inactive are those of the source. Rule as the data show it: active = GI50 up to about 1.1 µM and inactive = higher."}
{"smiles": "CCCCNC(=S)Nc1nc(C(=O)NNS(=O)(=O)c2ccccc2)cs1", "values": [{"measurement": "GI50", "setting": "786-0", "value": "> 100 µM (inactive)"}, {"measurement": "GI50", "setting": "A498", "value": "45.2 µM (inactive)"}, {"measurement": "GI50", "setting": "A549", "value": "40.3 µM (inactive)"}, {"measurement": "GI50", "setting": "ACHN", "value": "28.7 µM (inactive)"}, {"measurement": "GI50", "setting": "BT-549", "value": "32.7 µM (inactive)"}, {"measurement": "GI50", "setting": "CAKI-1", "value": "27.7 µM (inactive)"}, {"measurement": "GI50", "setting": "CCRF-CEM", "value": "44.3 µM (inactive)"}, {"measurement": "GI50", "setting": "COLO 205", "value": "17.9 µM (inactive)"}, {"measurement": "GI50", "setting": "DU-145", "value": "35.5 µM (inactive)"}, {"measurement": "GI50", "setting": "EKVX", "value": "31.6 µM (inactive)"}, {"measurement": "GI50", "setting": "HCC 2998", "value": "30.5 µM (inactive)"}, {"measurement": "GI50", "setting": "HCT-116", "value": "26.2 µM (inactive)"}, {"measurement": "GI50", "setting": "HCT-15", "value": 36.2, "unit": "µM"}, {"measurement": "GI50", "setting": "HOP-62", "value": "36.4 µM (inactive)"}, {"measurement": "GI50", "setting": "HOP-92", "value": "64.7 µM (inactive)"}, {"measurement": "GI50", "setting": "HT-29", "value": "> 10 µM (inactive)"}, {"measurement": "GI50", "setting": "IGROV-1", "value": "24.9 µM (inactive)"}, {"measurement": "GI50", "setting": "K562", "value": "49.1 µM (inactive)"}, {"measurement": "GI50", "setting": "KM12", "value": "39.7 µM (inactive)"}, {"measurement": "GI50", "setting": "LOX IMVI", "value": "19.4 µM (inactive)"}, {"measurement": "GI50", "setting": "M14", "value": "40.1 µM (inactive)"}, {"measurement": "GI50", "setting": "MCF7", "value": "42 µM (inactive)"}, {"measurement": "GI50", "setting": "MDA-MB-231", "value": "29.4 µM (inactive)"}, {"measurement": "GI50", "setting": "MDA-MB-435", "value": "21.4 µM (inactive)"}, {"measurement": "GI50", "setting": "MOLT-4", "value": "34.8 µM (inactive)"}, {"measurement": "GI50", "setting": "Malme-3M", "value": "28.9 µM (inactive)"}, {"measurement": "GI50", "setting": "NCI-H226", "value": "> 10 µM (inactive)"}, {"measurement": "GI50", "setting": "NCI-H23", "value": "44 µM (inactive)"}, {"measurement": "GI50", "setting": "NCI-H522", "value": "28.8 µM (inactive)"}, {"measurement": "GI50", "setting": "NCI/ADR-RES", "value": "60.3 µM (inactive)"}, {"measurement": "GI50", "setting": "OVCAR-3", "value": "24.2 µM (inactive)"}, {"measurement": "GI50", "setting": "OVCAR-5", "value": "42 µM (inactive)"}, {"measurement": "GI50", "setting": "OVCAR-8", "value": "33.7 µM (inactive)"}, {"measurement": "GI50", "setting": "PC-3", "value": "29 µM (inactive)"}, {"measurement": "GI50", "setting": "RPMI-8226", "value": "31.2 µM (inactive)"}, {"measurement": "GI50", "setting": "SF-268", "value": "27.8 µM (inactive)"}, {"measurement": "GI50", "setting": "SF-295", "value": "36.2 µM (inactive)"}, {"measurement": "GI50", "setting": "SF-539", "value": "33.6 µM (inactive)"}, {"measurement": "GI50", "setting": "SK-MEL-2", "value": "22.6 µM (inactive)"}, {"measurement": "GI50", "setting": "SK-MEL-5", "value": "17 µM (inactive)"}, {"measurement": "GI50", "setting": "SK-OV-3", "value": "36.6 µM (inactive)"}, {"measurement": "GI50", "setting": "SN12C", "value": "25.6 µM (inactive)"}, {"measurement": "GI50", "setting": "SNB-75", "value": "35.6 µM (inactive)"}, {"measurement": "GI50", "setting": "SR", "value": "41.1 µM (inactive)"}, {"measurement": "GI50", "setting": "T47D", "value": "71.8 µM (inactive)"}, {"measurement": "GI50", "setting": "TK-10", "value": "36 µM (inactive)"}, {"measurement": "GI50", "setting": "U-251", "value": "39.5 µM (inactive)"}, {"measurement": "GI50", "setting": "UACC-257", "value": "22.9 µM (inactive)"}, {"measurement": "GI50", "setting": "UACC-62", "value": "22.9 µM (inactive)"}, {"measurement": "GI50", "setting": "UO-31", "value": "26.1 µM (inactive)"}]}
{"smiles": "O=C(CSCC(=O)N/N=C/c1cccc(C(F)(F)F)c1)N/N=C/c1cccc(C(F)(F)F)c1", "values": [{"measurement": "GI50", "setting": "A498", "value": "> 100 µM (inactive)"}, {"measurement": "GI50", "setting": "ACHN", "value": "> 100 µM (inactive)"}, {"measurement": "GI50", "setting": "BT-549", "value": "> 100 µM (inactive)"}, {"measurement": "GI50", "setting": "CAKI-1", "value": "> 100 µM (inactive)"}, {"measurement": "GI50", "setting": "DU-145", "value": "> 100 µM (inactive)"}, {"measurement": "GI50", "setting": "EKVX", "value": "> 100 µM (inactive)"}, {"measurement": "GI50", "setting": "HCC 2998", "value": "> 100 µM (inactive)"}, {"measurement": "GI50", "setting": "HCT-15", "value": "> 100", "unit": "µM"}, {"measurement": "GI50", "setting": "HL-60", "value": "> 100 µM (inactive)"}, {"measurement": "GI50", "setting": "HOP-62", "value": "> 100 µM (inactive)"}, {"measurement": "GI50", "setting": "HOP-92", "value": "> 100 µM (inactive)"}, {"measurement": "GI50", "setting": "HT-29", "value": "> 100 µM (inactive)"}, {"measurement": "GI50", "setting": "Hs-578T", "value": "> 100 µM (inactive)"}, {"measurement": "GI50", "setting": "IGROV-1", "value": "> 100 µM (inactive)"}, {"measurement": "GI50", "setting": "K562", "value": "> 100 µM (inactive)"}, {"measurement": "GI50", "setting": "LOX IMVI", "value": "> 100 µM (inactive)"}, {"measurement": "GI50", "setting": "M14", "value": "> 100 µM (inactive)"}, {"measurement": "GI50", "setting": "MCF7", "value": "> 100 µM (inactive)"}, {"measurement": "GI50", "setting": "MDA-MB-435", "value": "> 100 µM (inactive)"}, {"measurement": "GI50", "setting": "Malme-3M", "value": "> 100 µM (inactive)"}, {"measurement": "GI50", "setting": "NCI-H226", "value": "> 100 µM (inactive)"}, {"measurement": "GI50", "setting": "NCI-H23", "value": "> 100 µM (inactive)"}, {"measurement": "GI50", "setting": "NCI-H522", "value": "> 100 µM (inactive)"}, {"measurement": "GI50", "setting": "NCI/ADR-RES", "value": "> 100 µM (inactive)"}, {"measurement": "GI50", "setting": "OVCAR-5", "value": "> 100 µM (inactive)"}, {"measurement": "GI50", "setting": "OVCAR-8", "value": "2.9 µM (inactive)"}, {"measurement": "GI50", "setting": "PC-3", "value": "> 100 µM (inactive)"}, {"measurement": "GI50", "setting": "RXF 393", "value": "> 100 µM (inactive)"}, {"measurement": "GI50", "setting": "SF-268", "value": "> 100 µM (inactive)"}, {"measurement": "GI50", "setting": "SF-295", "value": "> 100 µM (inactive)"}, {"measurement": "GI50", "setting": "SF-539", "value": "> 100 µM (inactive)"}, {"measurement": "GI50", "setting": "SK-MEL-28", "value": "> 100 µM (inactive)"}, {"measurement": "GI50", "setting": "SK-MEL-2", "value": "> 100 µM (inactive)"}, {"measurement": "GI50", "setting": "SK-MEL-5", "value": "> 100 µM (inactive)"}, {"measurement": "GI50", "setting": "SK-OV-3", "value": "> 100 µM (inactive)"}, {"measurement": "GI50", "setting": "SNB-19", "value": "> 100 µM (inactive)"}, {"measurement": "GI50", "setting": "SNB-75", "value": "> 100 µM (inactive)"}, {"measurement": "GI50", "setting": "T47D", "value": "> 100 µM (inactive)"}, {"measurement": "GI50", "setting": "TK-10", "value": "> 100 µM (inactive)"}, {"measurement": "GI50", "setting": "UACC-257", "value": "> 100 µM (inactive)"}, {"measurement": "GI50", "setting": "UACC-62", "value": "> 100 µM (inactive)"}, {"measurement": "GI50", "setting": "UO-31", "value": "> 100 µM (inactive)"}]}
